Reference: PubChem BioAssay (NCI)
Several values for one entry are separate records, joined by “and”; a condition that tells them apart may be missing. Equal values may be shown once.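 Protocol summary: plate cells (96-well), add compound at 5 concentrations, incubate 48 h, interpolate endpoints linearly. GI50 is the concentration that inhibits growth by half. The concentration for full growth arrest is given as TGI.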

How the values were obtained:
Assay in all cases: NCI-60 cell line screen, 48 h
SK-MEL-28 melanoma = system: SK-MEL-28 melanoma
HS 578T breast = system: HS 578T breast
MDA-N = system: MDA-N
CAKI-1 renal = system: CAKI-1 renal
MCF7 breast = system: MCF7 breast
HCT-15 colon = system: HCT-15 colon
K-562 leukemia = system: K-562 leukemia
DU-145 prostate = system: DU-145 prostate
M14 melanoma = system: M14 melanoma
XF 498 CNS = system: XF 498 CNS
DMS 114 small cell lung = system: DMS 114 small cell lung

| Compound | TGI (SK-MEL-28 melanoma) | TGI (HS 578T breast) | TGI (MDA-N) | TGI (CAKI-1 renal) | TGI (MCF7 breast) | TGI (HCT-15 colon) | TGI (K-562 leukemia) | TGI (DU-145 prostate) | TGI (M14 melanoma) | GI50 (SK-MEL-28 melanoma) | GI50 (XF 498 CNS) | GI50 (MCF7 breast) | GI50 (HCT-15 colon) | TGI (DMS 114 small cell lung) | GI50 (HS 578T breast) | GI50 (CAKI-1 renal) | GI50 (K-562 leukemia) | GI50 (DU-145 prostate) | GI50 (M14 melanoma) |
| --- | --- | --- | --- | --- | --- | --- | --- | --- | --- | --- | --- | --- | --- | --- | --- | --- | --- | --- | --- |
| COc1ccc(Cc2nc3cc(Cl)ccc3o2)cc1 | > 100 µM | > 100 µM | > 100 µM | > 100 µM | > 100 µM | > 100 µM | > 100 µM | > 100 µM | > 100 µM |  |  |  |  |  |  |  |  |  |  |
| CCOc1cc(NC(C)=O)ccc1C(=O)N/N=C/c1ccco1 | > 100 µM | > 100 µM | > 100 µM | > 100 µM | > 100 µM | > 100 µM | > 100 µM | > 100 µM |  |  |  |  |  |  |  |  |  |  |  |
| C=C1CCCC(C)(C)[C@@H]1CC/C(C)=C/Cn1c2cccc(=O)c-2nc2ccccc21 | 3.46 µM and 17.6 µM |  |  | 10.7 µM | > 100 µM and 10.4 µM |  | > 100 µM |  |  | 1.82 µM | 2.8 µM | 4.92 µM | 4.34 µM | 2.3 µM |  |  |  |  |  |
| Cc1ccc2c(=O)c(-c3nnsn3)c[nH]c2n1 | > 100 µM | > 100 µM | > 100 µM | > 100 µM | > 100 µM | > 100 µM | > 100 µM | > 100 µM | > 100 µM |  |  |  |  |  |  |  |  |  |  |
| COc1cc(/C=C2\N=C(c3ccccc3)N(c3nc4c(Cl)cc(Cl)cc4s3)C2=O)ccc1O | > 100 µM | 57.2 µM |  | > 100 µM | > 100 µM | > 100 µM | > 100 µM | > 100 µM | > 100 µM |  |  |  |  |  |  |  |  |  |  |
| CC(Br)C(=O)c1ccc2cc(Br)c3ccccc3c2c1 (configuration not stated) | 34 µM | 62.9 µM | 27 µM | 30.1 µM | 30.1 µM | 31 µM | 42.9 µM | 31.3 µM | 31 µM |  |  |  |  |  |  |  |  |  |  |
| Clc1ccc(NCc2nnc(COc3ccc(OCc4nnc(CNc5ccc(Cl)cc5)o4)c(Cl)c3)o2)cc1 | > 100 µM | > 100 µM | > 100 µM | > 100 µM | 88.3 µM | > 100 µM |  | > 100 µM | > 100 µM |  |  |  |  |  |  |  |  |  |  |
| NC(CCc1ccccc1)(C(=O)O)c1ccccc1 (configuration not stated) | > 100 µM | > 100 µM | > 100 µM | > 100 µM |  | > 100 µM | > 100 µM | > 100 µM | > 100 µM |  |  |  |  |  |  |  |  |  |  |
| O=P(O)(O)OP(=O)(O)O | > 100 µM | > 100 µM | > 100 µM | > 100 µM | > 100 µM | > 100 µM | > 100 µM | > 100 µM | > 100 µM |  |  |  |  |  |  |  |  |  |  |
| O=C(N/N=C\c1ccc([N+](=O)[O-])cc1)Nc1ccccc1 | > 100 µM | > 100 µM | > 100 µM | > 100 µM | > 100 µM | > 100 µM | > 100 µM | > 100 µM | > 100 µM |  |  |  |  |  |  |  |  |  |  |
| CN(C)c1ccc(/C=C2\C[C@H]3[C@@H]4CCC5=CC(=O)CC[C@]5(C)[C@H]4CC[C@]3(C)C2=O)cc1 | > 100 µM | > 100 µM | > 100 µM | > 100 µM | > 100 µM | > 100 µM | > 100 µM | > 100 µM | > 100 µM |  |  |  |  |  |  |  |  |  |  |
| CN(C)C/C=C(/c1ccc(Br)cc1)c1cccnc1 | 34.1 µM | > 100 µM | > 100 µM | > 100 µM | > 100 µM | > 100 µM | > 100 µM | > 100 µM | 37.2 µM |  |  |  |  |  |  |  |  |  |  |
| Cc1cc(O)c2c(c1O)C(=O)c1c(O)ccc(O)c1C2=O |  | > 100 µM | > 100 µM | > 100 µM | > 100 µM | > 100 µM | > 100 µM | > 100 µM | > 100 µM |  |  |  |  |  |  |  |  |  |  |
| COc1cc(/C=C2/C[C@H]3[C@@H]4CCC5=CC(=O)CC[C@]5(C)[C@H]4CC[C@]3(C)NC2=O)cc(OC)c1OC | > 100 µM | 73.9 µM | > 100 µM | > 100 µM | 88.9 µM | > 100 µM |  | > 100 µM | > 100 µM |  |  |  |  |  |  |  |  |  |  |
| C[C@H](Nc1ccc(C#N)n(C)c1=O)c1cc2cc(Cl)ccc2[nH]c1=O | > 100 µM | > 100 µM |  | > 100 µM | > 100 µM | > 100 µM | > 100 µM | > 100 µM | > 100 µM | 28.5 µM |  | 23.2 µM | 28.6 µM |  | 13.7 µM | 19.6 µM | 27.1 µM | 33 µM | 23.7 µM |
| CC(C)(C)OC(=O)N1C(C2=COc3ccccc3O2)=COc2cccnc21 | 3.47 µM | 19.1 µM | 4.68 µM | 6.82 µM | 3.08 µM | 3.46 µM | 5.33 µM | 2.76 µM | 3.65 µM |  |  |  |  |  |  |  |  |  |  |
| CCCCCCOC(=O)C(N)Cc1ccc(OC)cc1 (configuration not stated) | > 100 µM | > 100 µM |  | > 100 µM | > 100 µM | > 100 µM | > 100 µM | > 100 µM | > 100 µM |  |  |  |  |  |  |  |  |  |  |
| O=C(COC(c1ccc(F)cc1)c1ccc(F)cc1)N1CCN(CCCc2ccccc2)CC1 | > 100 µM | 59.6 µM | 13.4 µM | 4.15 µM | 12.6 µM | 11.4 µM | > 100 µM | 14.5 µM | 16.2 µM |  |  |  |  |  |  |  |  |  |  |
